Measured values reported in patent US4540700A, “Treatment of diabetic complications with certain spiro-imidazolidine-diones” (Alcon Laboratories, Inc., priority 1984, dated 1985).

System: cataract formation in galactocemic rats
Assay: in vivo dose response by intubation (per oral) in galactocemic rats, cataract (vacuole) formation
Design: species or system Charles River CD (Sprague-Dawley derived) male rats
Description: B. In vivo dose response studies were conducted to test the in vivo activity of the following compounds by intubation (per oral) in galactocemic rats on a 30% galactose diet previously described:
Stock suspensions of the test compounds and all dilutions of the compound were formulated with 0.03% by weight Tween 80.
Healthy, Charles River CD (outbred albino, Sprague-Dawley derived) male rats, aged 20-30 days, without observable ocular defects and ranging in weight from 35-45 grams, were acclimated to experimental conditions (in quarantine) for two days prior to beginning the study.
Rats were individually assigned to one of twenty-three groups according to a random number schedule. Two rats, belonging to the same drug-diet treatment group, were housed per cage. Treatment and control groups consisted of six (6) rats each with no replacement in the event of death, and were designated as follows:
Lenses of all eyes were examined with a hand-held ophthalmoscope in the early stages of cataract development and a penlight for the stages, snowflake-like, snowflake, and nuclear cataract. Lens grading occurred every day for the first ten study days, and then every other day until study Day 14.
The relative potency determination was made at 7 drug levels over half log dose intervals. The response (percent cataracts formed and/or the time to cataract formation) was plotted against mg/kg and/or moles/kg.
The study was directed to the suppression and/or elimination of the initial stages of cataract development characterized by vacuoles or snowflake-likeopacities only. It was assumed therefore that suppression and/or elimination of vacuoles or lens opacification by the test drugs affects the transport, absorption and/or metabolism of galactose in such a manner as to prevent subsequent osmotic disturbances normally leading to tissue degeneration and advanced cataract. Advanced cataract defined as stages 2-4 of the Sipple classification was assumed to be of secondary importance to the etiology of cataract inhibition.
In the event where cataract stage other than vacuole formed, such as snowflake-like opacities, this cataract was counted similarly as vacuole in percent cataract formation.
This study yielded this expected effect in the control groups.
All animals were fed Purina Laboratory Chow and water, ad libitum, for the two day acclimation period. All drugs were dosed orally by intubation using an animal feeding needle (Popper and Sons), 18 or 20 gauge, attached to a 1 or 3 ml syringe. Once the dosing time schedule was established, the schedule was followed throughout the study to compensate for any diurnal variation.
The animals were kept on a twelve hour day/night cycle. The temperature and humidity were determined each day at the scheduled dosing time of 1:00 p.m.
The animals were weighed every other day and adjustments to dosage amounts to compensate for weight gain were made each day prior to the dose time. All food was routinely withheld from all animal groups for four hours (9:00 a.m.) prior to the drug dose and restored two hours (3:00 p.m.) post-dose. Otherwise sufficient amounts of chow or diet mixture were maintained in the food hopper to allow the animals to eat ad libitum. There were two days of drug dosage with the animals remaining on Purina Laboratory Chow (Days 1 and 2). The 30% galactose diet mixture was introduced to the animals two hours post-dose on Day 3 which constituted Day 1 of the study.
All eyes were examined with a hand-held ophthalmoscope and/or penlight at the times designated in the Experimental Design section.
It has been found in previous studies that dilation of the eye with a mydriactic (i.e. Mydriacyl) is not necessary for accurate grading, due to the semi-transparent nature of the rat iris. In the early stages (i.e., grades -, ±, and +) the lens was observed by reflecting the ophthalmoscope beam off the retina back through the lens and iris. Using this technique, vacuoles appear as dark, almost opaque patches. […]

O=C1NC(=O)C2(N1)c1ccccc1-c1ccc(F)cc12 (racemic) [Compound L, dl-Spiro(2-fluorofluoren-9,4'-imidazolidine)-2',5'-dione]
Percent of Rat Eyes With at Least Vacuoles Formed (0.126 mg/kg p.o., Day 0): 0%
Percent of Rat Eyes With at Least Vacuoles Formed (0.126 mg/kg p.o., Day 1): 0%
Percent of Rat Eyes With at Least Vacuoles Formed (0.126 mg/kg p.o., Day 2): 0%
Percent of Rat Eyes With at Least Vacuoles Formed (0.126 mg/kg p.o., Day 3): 0%
Percent of Rat Eyes With at Least Vacuoles Formed (0.126 mg/kg p.o., Day 4): 0%
Percent of Rat Eyes With at Least Vacuoles Formed (0.126 mg/kg p.o., Day 5): 0%
Percent of Rat Eyes With at Least Vacuoles Formed (0.126 mg/kg p.o., Day 6): 33%
Percent of Rat Eyes With at Least Vacuoles Formed (0.126 mg/kg p.o., Day 7): 33%
Percent of Rat Eyes With at Least Vacuoles Formed (0.126 mg/kg p.o., Day 8): 50%
Percent of Rat Eyes With at Least Vacuoles Formed (0.126 mg/kg p.o., Day 9): 50%
Percent of Rat Eyes With at Least Vacuoles Formed (0.126 mg/kg p.o., Day 10): 50%
Percent of Rat Eyes With at Least Vacuoles Formed (0.126 mg/kg p.o., Day 12): 83%
Percent of Rat Eyes With at Least Vacuoles Formed (0.126 mg/kg p.o., Day 14): 83%
Percent of Rat Eyes With at Least Vacuoles Formed (0.4 mg/kg p.o., Day 0): 0%
Percent of Rat Eyes With at Least Vacuoles Formed (0.4 mg/kg p.o., Day 1): 0%
Percent of Rat Eyes With at Least Vacuoles Formed (0.4 mg/kg p.o., Day 2): 0%
Percent of Rat Eyes With at Least Vacuoles Formed (0.4 mg/kg p.o., Day 3): 0%
Percent of Rat Eyes With at Least Vacuoles Formed (0.4 mg/kg p.o., Day 4): 0%
Percent of Rat Eyes With at Least Vacuoles Formed (0.4 mg/kg p.o., Day 5): 0%
Percent of Rat Eyes With at Least Vacuoles Formed (0.4 mg/kg p.o., Day 6): 0%
Percent of Rat Eyes With at Least Vacuoles Formed (0.4 mg/kg p.o., Day 7): 8%
Percent of Rat Eyes With at Least Vacuoles Formed (0.4 mg/kg p.o., Day 8): 42%
Percent of Rat Eyes With at Least Vacuoles Formed (0.4 mg/kg p.o., Day 9): 42%
Percent of Rat Eyes With at Least Vacuoles Formed (0.4 mg/kg p.o., Day 10): 67%
Percent of Rat Eyes With at Least Vacuoles Formed (0.4 mg/kg p.o., Day 12): 83%
Percent of Rat Eyes With at Least Vacuoles Formed (0.4 mg/kg p.o., Day 14): 100%
Percent of Rat Eyes With at Least Vacuoles Formed (1.26 mg/kg p.o., Day 0): 0%
Percent of Rat Eyes With at Least Vacuoles Formed (1.26 mg/kg p.o., Day 1): 0%
Percent of Rat Eyes With at Least Vacuoles Formed (1.26 mg/kg p.o., Day 2): 0%
Percent of Rat Eyes With at Least Vacuoles Formed (1.26 mg/kg p.o., Day 3): 0%
Percent of Rat Eyes With at Least Vacuoles Formed (1.26 mg/kg p.o., Day 4): 0%
Percent of Rat Eyes With at Least Vacuoles Formed (1.26 mg/kg p.o., Day 5): 0%
Percent of Rat Eyes With at Least Vacuoles Formed (1.26 mg/kg p.o., Day 6): 0.0%
Percent of Rat Eyes With at Least Vacuoles Formed (1.26 mg/kg p.o., Day 6, listed as 2-fluoro): 0%
Percent of Rat Eyes With at Least Vacuoles Formed (1.26 mg/kg p.o., Day 7): 0%
Percent of Rat Eyes With at Least Vacuoles Formed (1.26 mg/kg p.o., Day 8): 0%
Percent of Rat Eyes With at Least Vacuoles Formed (1.26 mg/kg p.o., Day 9): 0%
Percent of Rat Eyes With at Least Vacuoles Formed (1.26 mg/kg p.o., Day 10): 0%
Percent of Rat Eyes With at Least Vacuoles Formed (1.26 mg/kg p.o., Day 12): 0%
Percent of Rat Eyes With at Least Vacuoles Formed (1.26 mg/kg p.o., Day 14): 0%
Percent of Rat Eyes With at Least Vacuoles Formed (4.0 mg/kg p.o., Day 0): 0%
Percent of Rat Eyes With at Least Vacuoles Formed (4.0 mg/kg p.o., Day 1): 0%
Percent of Rat Eyes With at Least Vacuoles Formed (4.0 mg/kg p.o., Day 2): 0%
Percent of Rat Eyes With at Least Vacuoles Formed (4.0 mg/kg p.o., Day 3): 0%
Percent of Rat Eyes With at Least Vacuoles Formed (4.0 mg/kg p.o., Day 4): 0%
Percent of Rat Eyes With at Least Vacuoles Formed (4.0 mg/kg p.o., Day 5): 0%
Percent of Rat Eyes With at Least Vacuoles Formed (4.0 mg/kg p.o., Day 6): 0.0%
Percent of Rat Eyes With at Least Vacuoles Formed (4.0 mg/kg p.o., Day 6, listed as 2-fluoro): 0%
Percent of Rat Eyes With at Least Vacuoles Formed (4.0 mg/kg p.o., Day 7): 0.0%
Percent of Rat Eyes With at Least Vacuoles Formed (4.0 mg/kg p.o., Day 7, listed as 2-fluoro): 0%
Percent of Rat Eyes With at Least Vacuoles Formed (4.0 mg/kg p.o., Day 8): 0.0%
